The values that follow come from patent publication US11229608B2 (priority 2019, dated 2022).

For the data set, the system named is ornamental vinca (vincire) plants. The experiment in a line: Phytotoxicity assessment on vinca plants after foliar application. Type of data set: in vivo. The arrangement: key to Phytotoxicity rating: −: non-phytotoxic; +: minimal phytotoxic; ++: moderate phytotoxic; +++: heavy phytotoxic. As to conditions: 72 hours; for Phytotoxicity rating: visual. The method, then:
Ornamental vinca plants are susceptible to metal phytotoxicity such as Cu and used as industry standard. 3 plants were foliar sprayed with each treatments and controls at three different rates, 300 ppm, 600 ppm and 1,000 ppm. Test solutions were foliar applied using hand-operated pump mist sprayer till run off. Afterwards, plants were placed in plant growth chamber (Panasonic MLR-325H-PA) programmed to simulate summer conditions (maximum temperature set at 31° C.). Visual observations were conducted after 72 hours application to assess the overall plant health and phytotoxicity rating.
The assessment was done visually based on size and number of burns on plants after 72 hours of foliar application. Vinca (vincire) plant phytotoxicity rating on a scale of “−” non-phytotoxic, “+” minimal phytotoxic, “++” moderate phytotoxic, and (+++) heavy phytotoxic.

Entries after “also recorded” stand apart in the source; their conditions may differ.

On to `O=[N+]([O-])[O-].O=[N+]([O-])[O-].[Zn+2]` [Zinc nitrate], for which the “phytotoxicity (in words)” value is “non-phytotoxic” (300 μg/ml), “moderately phytotoxic; also recorded: minimally phytotoxic” (600 μg/ml) and “moderately phytotoxic” (1,000 μg/ml (ppm)). The Phytotoxicity rating entry (metal concentration 300 μg/ml) is “−”, the Phytotoxicity rating entry (metal concentration 600 μg/ml) was “+” and the Phytotoxicity rating result (metal concentration 1000 μg/ml) is reported as “++”.
As for `O=[N+]([O-])[O-].O=[N+]([O-])[O-].[Cu+2]` [Copper nitrate], under “1,000 μg/ml (ppm)”, the “phytotoxicity (in words)” value was “severely phytotoxic”. Further, the Phytotoxicity rating result (metal concentration 1000 μg/ml) is reported as “+++”.
